From US20100249408A1, “USE OF NOVEL COMPOUND HAVING AFFINITY FOR AMYLOID, AND PROCESS FOR PRODUCTION OF THE SAME” (NIHON MEDI-PHYSICS CO., LTD., priority 2007, published 2010)
Like-named read-outs stand apart in the source and are kept apart here.

Tests used:
[1] = Transferability into brain and clearance (Example I-16, Comparative Example I-7); type: in vivo, male Wistar rats; settings: rats, intravenous injection, two animals
Protocol: Using Compound 6, a time course change of radioactive accumulation in brain of male Wistar rats (7-week old) was measured.
Also, radioactivity (hereinafter referred to as B in this Example) of 0.05 mL of a 1000-fold diluted solution of the injected solution was measured in the same manner as above. Using these measurement results, radioactive accumulation per unit weight of brain (% ID/g) at the respective time points was calculated in accordance with the following formula (3).

[2] = biological target: intracerebral amyloid (aggregated Aβ1-40 injected into amygdaloid nucleus) (Homo sapiens, UniProt P05067); settings: rat with Aβ1-40 amyloid suspension in one amygdaloid nucleus, tail vein, brain removed 60 minutes after injection
Protocol: The following experiment was carried out in order to examine whether amyloid in brain can be imaged by the compound of the present invention.
The rats were examined 1 day after the injection of the amyloid suspension and the phosphate buffered physiological saline solution (pH 7.4).
(4) Brain was removed 60 minutes after the injection to prepare a brain slice of 10 μm in thickness with a microtome (type: CM3050S, manufactured by LEICA).

amylin amyloid = amylin amyloid (Homo sapiens, UniProt P10997); settings: amylin amyloid 0.8 μg/mL, compound 0.2-20.2 pM, 22° C., 3 hours (FIG. 16)
Description: (§1) Affinity of the present compounds with amyloid was examined by the following in vitro binding tests.

insulin amyloid = insulin amyloid (Homo sapiens, UniProt P01308); settings: insulin amyloid 0.8 μg/mL, compound 0.2-20.2 pM, 22° C., 3 hours (FIG. 16)
Description: as §1

[3] = biological target: β2-m-amyloid (aggregated β2-microglobulin) (Homo sapiens, UniProt P61769); settings: β2-m-amyloid 0.8 μg/mL, compound 0.2-20.2 pM, 22° C., 3 hours (FIG. 16)
Description: as §1

[4] = SD rat; for Radioactive distribution per unit weight, Adrenal gland, Average / Radioactive distribution per unit weight, Blood, Average / Radioactive distribution per unit weight, Bone, Average / Radioactive distribution per unit weight, Brain, Average / Radioactive distribution per unit weight, Heart, Average / Radioactive distribution per unit weight, Kidney, Average / Radioactive distribution per unit weight, Large intestine, Average / Radioactive distribution per unit weight, Liver, Average / Radioactive distribution per unit weight, Lung, Average / Radioactive distribution per unit weight, Marrow, Average / Radioactive distribution per unit weight, Muscle, Average / Radioactive distribution per unit weight, Pancreas, Average / Radioactive distribution per unit weight, Small intestine, Average / Radioactive distribution per unit weight, Spleen, Average / Radioactive distribution per unit weight, Stomach, Average: tail vein
Protocol: A solution of Compound 6 in diethylether was diluted with a 10 mg/mL ascorbic acid-containing physiological saline solution and adjusted to 8-12 MBq/mL in radioactive concentration. 0.2 mL each of the prepared sample solution was administered under non-anesthesia into the tail vein of the above rat. The rats were sacrificed by bleeding from abdominal artery, and each organ shown in Table 11 was removed 5, 30, 60 and 180 minutes after the administration. […] Also, radioactivity of the whole body of the rat after removal of the organs (hereinafter referred to as rest of the whole body) was measured. Using these measurement results, radioactive distribution per unit weight of each organ (% ID/g) at the respective time points was calculated in accordance with the following formula (6).
Three animals were used for the experiment at the respective time points.
[formula] • R^T: Radioactivity of target organ (cpm) • R^S: Sum of radioactivity of all the organs (cpm) • R^R: Radioactivity of the rest of the whole body (cpm) • M^T: Mass of target organ (g)

Sequence of intracerebral amyloid (aggregated Aβ1-40 injected into amygdaloid nucleus) (P05067 672-711): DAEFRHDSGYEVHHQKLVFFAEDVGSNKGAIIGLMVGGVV
Sequence of amylin amyloid (P10997 34-70 limits assumed): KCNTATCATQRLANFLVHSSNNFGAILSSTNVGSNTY
Sequence of insulin amyloid (P01308 25-54 limits assumed): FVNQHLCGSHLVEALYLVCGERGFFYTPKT
Sequence of insulin amyloid (P01308 90-110 limits assumed): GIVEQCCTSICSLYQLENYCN

- Radioactive accumulation in brain per unit weight ([1]; after 2 min.): 0.96 % ID/g
- Radioactive accumulation in brain per unit weight ([1]; after 5 min.): 0.69 % ID/g
- Radioactive accumulation in brain per unit weight ([1]; after 30 min.): 0.16 % ID/g
- Radioactive accumulation in brain per unit weight ([1]; after 60 min.): 0.04 % ID/g
- Accumulation of radioactivity at intracerebral amyloid (autoradiogram) [2]: accumulating on intracerebral amyloid
- Ratio (% ID/g at 5 minutes after the administration)/(% ID/g at 180 minutes after the administration) ([4]; bone): 4
- Ratio (% ID/g at 5 minutes after the administration)/(% ID/g at 180 minutes after the administration) ([4]; brain): 122
- Ratio (% ID/g at 5 minutes after the administration)/(% ID/g at 180 minutes after the administration) ([4]; heart): 13
- Ratio (% ID/g at 5 minutes after the administration)/(% ID/g at 180 minutes after the administration) ([4]; lung): 7
- Ratio (% ID/g at 5 minutes after the administration)/(% ID/g at 180 minutes after the administration) ([4]; pancreas): 14
- Radioactive distribution per unit weight, Adrenal gland, Average ([4]; 5 min. after administration): 4.648 % ID/g
- Radioactive distribution per unit weight, Adrenal gland, Average ([4]; 30 min. after administration): 0.642 % ID/g
- Radioactive distribution per unit weight, Adrenal gland, Average ([4]; 60 min. after administration): 0.260 % ID/g
- Radioactive distribution per unit weight, Adrenal gland, Average ([4]; 180 min. after administration): 0.020 % ID/g
- Radioactive distribution per unit weight, Blood, Average ([4]; 5 min. after administration): 0.285 % ID/g
- Radioactive distribution per unit weight, Blood, Average ([4]; 30 min. after administration): 0.174 % ID/g
- Radioactive distribution per unit weight, Blood, Average ([4]; 60 min. after administration): 0.122 % ID/g
- Radioactive distribution per unit weight, Blood, Average ([4]; 180 min. after administration): 0.109 % ID/g
- Radioactive distribution per unit weight, Bone, Average ([4]; 5 min. after administration): 0.222 % ID/g
- Radioactive distribution per unit weight, Bone, Average ([4]; 30 min. after administration): 0.088 % ID/g
- Radioactive distribution per unit weight, Bone, Average ([4]; 60 min. after administration): 0.058 % ID/g
- Radioactive distribution per unit weight, Bone, Average ([4]; 180 min. after administration): 0.053 % ID/g
- Radioactive distribution per unit weight, Brain, Average ([4]; 5 min. after administration): 0.721 % ID/g
- Radioactive distribution per unit weight, Brain, Average ([4]; 30 min. after administration): 0.124 % ID/g
- Radioactive distribution per unit weight, Brain, Average ([4]; 60 min. after administration): 0.030 % ID/g
- Radioactive distribution per unit weight, Brain, Average ([4]; 180 min. after administration): 0.006 % ID/g
- Radioactive distribution per unit weight, Heart, Average ([4]; 5 min. after administration): 0.619 % ID/g
- Radioactive distribution per unit weight, Heart, Average ([4]; 30 min. after administration): 0.147 % ID/g
- Radioactive distribution per unit weight, Heart, Average ([4]; 60 min. after administration): 0.063 % ID/g
- Radioactive distribution per unit weight, Heart, Average ([4]; 180 min. after administration): 0.047 % ID/g
- Radioactive distribution per unit weight, Kidney, Average ([4]; 5 min. after administration): 0.999 % ID/g
- Radioactive distribution per unit weight, Kidney, Average ([4]; 30 min. after administration): 0.540 % ID/g
- Radioactive distribution per unit weight, Kidney, Average ([4]; 60 min. after administration): 0.244 % ID/g
- Radioactive distribution per unit weight, Kidney, Average ([4]; 180 min. after administration): 0.108 % ID/g
- Radioactive distribution per unit weight, Large intestine, Average ([4]; 5 min. after administration): 0.116 % ID/g
- Radioactive distribution per unit weight, Large intestine, Average ([4]; 30 min. after administration): 0.070 % ID/g
- Radioactive distribution per unit weight, Large intestine, Average ([4]; 60 min. after administration): 0.066 % ID/g
- Radioactive distribution per unit weight, Large intestine, Average ([4]; 180 min. after administration): 7.296 % ID/g
- Radioactive distribution per unit weight, Liver, Average ([4]; 5 min. after administration): 2.008 % ID/g
- Radioactive distribution per unit weight, Liver, Average ([4]; 30 min. after administration): 0.509 % ID/g
- Radioactive distribution per unit weight, Liver, Average ([4]; 60 min. after administration): 0.181 % ID/g
- Radioactive distribution per unit weight, Liver, Average ([4]; 180 min. after administration): 0.083 % ID/g
- Radioactive distribution per unit weight, Lung, Average ([4]; 5 min. after administration): 0.657 % ID/g
- Radioactive distribution per unit weight, Lung, Average ([4]; 30 min. after administration): 0.209 % ID/g
- Radioactive distribution per unit weight, Lung, Average ([4]; 60 min. after administration): 0.120 % ID/g
- Radioactive distribution per unit weight, Lung, Average ([4]; 180 min. after administration): 0.089 % ID/g
- Radioactive distribution per unit weight, Marrow, Average ([4]; 5 min. after administration): 0.713 % ID/g
- Radioactive distribution per unit weight, Marrow, Average ([4]; 30 min. after administration): 0.194 % ID/g
- Radioactive distribution per unit weight, Marrow, Average ([4]; 60 min. after administration): 0.000 % ID/g
- Radioactive distribution per unit weight, Marrow, Average ([4]; 180 min. after administration): 0.030 % ID/g
- Radioactive distribution per unit weight, Muscle, Average ([4]; 5 min. after administration): 0.381 % ID/g
- Radioactive distribution per unit weight, Muscle, Average ([4]; 30 min. after administration): 0.078 % ID/g
- Radioactive distribution per unit weight, Muscle, Average ([4]; 60 min. after administration): 0.034 % ID/g
- Radioactive distribution per unit weight, Muscle, Average ([4]; 180 min. after administration): 0.022 % ID/g
- Radioactive distribution per unit weight, Pancreas, Average ([4]; 5 min. after administration): 0.846 % ID/g
- Radioactive distribution per unit weight, Pancreas, Average ([4]; 30 min. after administration): 0.207 % ID/g
- Radioactive distribution per unit weight, Pancreas, Average ([4]; 60 min. after administration): 0.084 % ID/g
- Radioactive distribution per unit weight, Pancreas, Average ([4]; 180 min. after administration): 0.060 % ID/g
- Radioactive distribution per unit weight, Small intestine, Average ([4]; 5 min. after administration): 1.078 % ID/g
- Radioactive distribution per unit weight, Small intestine, Average ([4]; 30 min. after administration): 6.335 % ID/g
- Radioactive distribution per unit weight, Small intestine, Average ([4]; 60 min. after administration): 8.207 % ID/g
- Radioactive distribution per unit weight, Small intestine, Average ([4]; 180 min. after administration): 1.408 % ID/g
- Radioactive distribution per unit weight, Spleen, Average ([4]; 5 min. after administration): 0.462 % ID/g
- Radioactive distribution per unit weight, Spleen, Average ([4]; 30 min. after administration): 0.140 % ID/g
- Radioactive distribution per unit weight, Spleen, Average ([4]; 60 min. after administration): 0.075 % ID/g
- Radioactive distribution per unit weight, Spleen, Average ([4]; 180 min. after administration): 0.072 % ID/g
- Radioactive distribution per unit weight, Stomach, Average ([4]; 5 min. after administration): 0.360 % ID/g
- Radioactive distribution per unit weight, Stomach, Average ([4]; 30 min. after administration): 1.025 % ID/g
- Radioactive distribution per unit weight, Stomach, Average ([4]; 60 min. after administration): 1.043 % ID/g
- Radioactive distribution per unit weight, Stomach, Average ([4]; 180 min. after administration): 1.081 % ID/g
Structure (SMILES): Oc1ccc(-c2cn3cc([123I])ccc3n2)cc1 [Compound 6, [^123I]-2-(4′-hydroxyphenyl)-6-iodoimidazo[1,2-a]pyridine]
- Radioactive count on glass fiber filter versus group without addition of amyloid (amylin amyloid): radioactivity was all high compared to the group without addition of amyloid suspension
- Radioactive count on glass fiber filter versus group without addition of amyloid (insulin amyloid): radioactivity was all high compared to the group without addition of amyloid suspension
- Radioactive count on glass fiber filter versus group without addition of amyloid [3]: radioactivity was all high compared to the group without addition of amyloid suspension
